# In patent US20230066011A1, “PYRROLOPYRIMIDINE DERIVATIVE, AND PHARMACEUTICAL COMPOSITION FOR PREVENTING OR TREATING PROTEIN KINASE-RELATED DISEASE COMPRISING SAME AS ACTIVE INGREDIENT” (VORONOI CO., LTD., priority 2019, published 2023):
# Legend:
# SHP-77 = assay: Inhibition of proliferation of SHP-77 cancer cells (Cell Titer-Glo); format: cell-based; details: Homo sapiens, SHP77, 72 hours
# Experimental: (§1) To evaluate an inhibitory effect on the proliferation of cancer cells, each of an MDA-MB-231 cell line (Korean Cell Line Bank #30026) and an MDA-MB-468 cell line as triple-negative breast cancer cell lines, and SHP-77 (ATCC #CRL-2195) as a small-cell lung cancer cell line was cultured in DMEM (HyClone #SH30243) or an RPMI medium (HyClone #SH3027.01) to analyze a cell growth rate. More specifically, a cell line was plated on a 96-well flat bottom plate (Corning #3903) at a density of 2,000 cells/100 μL per well, and then treated with 11 concentrations of the Example compound, a solution of which was diluted 3-fold so that a final concentration of the compound was 10.000000, 3.333333, 1.111111, 0.370370, 0.123457, 0.041152, 0.013717, 0.004572, 0.001524, 0.000508, and 0.000169 μM. After 72 hours, each of the culture media was treated with 100 μL of Cell Titer-Glo (Promega G7573), and then cultured at room temperature for 10 minutes. Then, a degree of luminescence was measured using a microplate reader. A GI50 value was calculated from the measured degree of luminescence using Prism (Version 8.2 GraphPad) software.
# MDA-MB-231 cell line = assay: Inhibition of proliferation of MDA-MB-231 cancer cells (Cell Titer-Glo); format: cell-based; details: Homo sapiens, 72 hours
# Experimental: as §1
# human GST-DYRK1A = biological target: T1, human GST-DYRK1A (Homo sapiens, UniProt Q13627); assay: GST-DYRK1A enzyme inhibition, ADP-Glo kinase assay; format: biochemical; details: ATP 10 μM, GST-DYRK1A full length, read-out: DYRK1 IC50
# T1 construct: purified human GST-DYRK1A (full length, Thermo Scientifics) enzyme; purchased Thermo Scientifics
# Outline: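 Full-length enzyme (10 ng) was incubated with 10 μM ATP and a specific substrate for 1 h at 25 °C in 40 mM Tris-HCl pH 7.4, 20 mM MgCl2, 0.5 mg/mL BSA, 50 μM DTT. Luminescence was read against a solvent control, and IC50 values were derived from 3 data sets.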
# human GST-CLK1 = biological target: T2, human GST-CLK1 (Homo sapiens, UniProt P49759); assay: GST-CLK1 enzyme inhibition, ADP-Glo kinase assay; format: biochemical; details: ATP 10 μM, GST-CLK1 129-end
# T2 construct: purified human GST-CLK1 (129-end, SignalChem) enzyme; purchased SignalChem
# Outline: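 ADP-Glo luminescence read-out, relative to untreated solvent control, gave IC50 (nM) from triplicate data sets. Reactions ran an hour at 25° C with 3 ng GST-CLK1 (residues 129-end), 10 μM ATP and specific substrate in Tris-HCl pH 7.4 buffer with MgCl2, BSA and DTT.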
# LRRK2 = LRRK2 (Homo sapiens, UniProt Q5S007); assay: LRRK2 enzyme inhibition, ADP-Glo kinase assay; format: biochemical; set-up: purchased Invitrogen PR8604B; details: ATP 10 μM
# Outline: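 ADP-Glo luminescent read-out of ADP formed by purified human LRRK2 enzyme (25 ng), 10 μM ATP, 0.2 μg substrate, 25° C for 2 h, Tris-HCl pH 7.4 buffer with MgCl2, BSA, DTT. Inhibition versus untreated solvent control over twelve final concentrations (50 μM downward) gives IC50.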
# LRRK2 (G2019S) = LRRK2 (G2019S) (Homo sapiens, UniProt Q5S007, G2019S); assay: LRRK2 G2019S enzyme inhibition, ADP-Glo kinase assay; format: biochemical; set-up: purchased SignalChem L10-12GG; details: ATP 25 μM
# Outline: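 IC50 derived from luminescent ADP-Glo readout against untreated solvent control, twelve final compound concentrations from 50 μM downward. Reaction: recombinant human LRRK2 G2019S enzyme, 25 μM ATP, substrate, pH 7.4 Tris buffer with MgCl2/BSA/DTT, 25° C. for 2 hours.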
# MDA-MB-468 cell line = assay: Inhibition of proliferation of MDA-MB-468 cancer cells (Cell Titer-Glo); format: cell-based; details: Homo sapiens, MDA-MB-468, 72 hours
# Experimental: as §1
# T2 sequence (P49759 129-484 limits assumed): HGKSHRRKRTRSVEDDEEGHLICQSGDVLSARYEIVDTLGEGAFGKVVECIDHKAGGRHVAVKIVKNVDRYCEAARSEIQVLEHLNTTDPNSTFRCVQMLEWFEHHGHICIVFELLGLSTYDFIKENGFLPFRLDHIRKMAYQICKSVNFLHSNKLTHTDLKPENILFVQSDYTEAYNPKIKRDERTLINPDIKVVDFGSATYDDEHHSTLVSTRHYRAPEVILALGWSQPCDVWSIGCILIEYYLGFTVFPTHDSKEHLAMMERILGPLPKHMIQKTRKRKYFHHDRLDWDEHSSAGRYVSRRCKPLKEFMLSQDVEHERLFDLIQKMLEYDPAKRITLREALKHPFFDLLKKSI
# Sequence of LRRK2 (G2019S) (Q5S007 970-2527 G2019S limits assumed): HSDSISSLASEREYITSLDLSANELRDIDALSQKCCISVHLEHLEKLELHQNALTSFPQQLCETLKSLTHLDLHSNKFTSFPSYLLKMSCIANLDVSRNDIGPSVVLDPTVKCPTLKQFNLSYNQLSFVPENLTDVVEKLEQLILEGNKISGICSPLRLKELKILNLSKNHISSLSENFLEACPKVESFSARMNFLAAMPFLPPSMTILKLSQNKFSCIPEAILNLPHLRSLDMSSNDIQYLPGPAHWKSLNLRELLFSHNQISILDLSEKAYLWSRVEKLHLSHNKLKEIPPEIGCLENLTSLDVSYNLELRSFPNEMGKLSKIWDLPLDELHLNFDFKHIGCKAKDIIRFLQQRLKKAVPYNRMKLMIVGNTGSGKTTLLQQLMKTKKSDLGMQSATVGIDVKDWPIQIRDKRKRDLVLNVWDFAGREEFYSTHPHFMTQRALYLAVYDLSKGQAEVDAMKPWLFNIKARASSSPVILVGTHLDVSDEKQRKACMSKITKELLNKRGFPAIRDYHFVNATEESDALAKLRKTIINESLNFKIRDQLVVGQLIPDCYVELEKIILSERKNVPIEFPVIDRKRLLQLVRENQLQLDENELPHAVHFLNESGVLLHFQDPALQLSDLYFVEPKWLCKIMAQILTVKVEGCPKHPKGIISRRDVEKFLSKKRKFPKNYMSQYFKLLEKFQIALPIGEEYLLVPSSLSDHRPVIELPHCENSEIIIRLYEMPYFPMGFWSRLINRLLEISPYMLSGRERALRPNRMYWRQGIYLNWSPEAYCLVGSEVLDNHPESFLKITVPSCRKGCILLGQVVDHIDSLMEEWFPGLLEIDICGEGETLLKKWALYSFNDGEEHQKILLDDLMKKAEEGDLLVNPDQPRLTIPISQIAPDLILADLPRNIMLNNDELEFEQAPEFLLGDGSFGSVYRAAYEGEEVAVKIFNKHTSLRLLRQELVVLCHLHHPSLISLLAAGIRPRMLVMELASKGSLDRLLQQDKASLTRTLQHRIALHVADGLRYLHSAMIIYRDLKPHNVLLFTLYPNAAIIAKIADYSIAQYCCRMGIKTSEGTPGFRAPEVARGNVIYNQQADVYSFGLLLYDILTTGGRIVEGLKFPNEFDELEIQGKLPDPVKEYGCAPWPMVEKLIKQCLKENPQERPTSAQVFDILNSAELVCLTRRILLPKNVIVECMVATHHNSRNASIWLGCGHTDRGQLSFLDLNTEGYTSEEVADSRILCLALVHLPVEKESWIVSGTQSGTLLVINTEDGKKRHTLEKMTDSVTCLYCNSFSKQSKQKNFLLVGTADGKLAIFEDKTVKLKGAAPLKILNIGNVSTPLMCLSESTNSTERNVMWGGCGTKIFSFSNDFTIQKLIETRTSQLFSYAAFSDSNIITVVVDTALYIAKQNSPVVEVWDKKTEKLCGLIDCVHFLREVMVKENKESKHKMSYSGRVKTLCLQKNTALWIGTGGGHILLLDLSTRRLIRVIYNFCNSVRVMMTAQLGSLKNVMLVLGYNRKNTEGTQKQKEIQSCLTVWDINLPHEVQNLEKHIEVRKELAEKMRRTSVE
# Sequence of LRRK2 (Q5S007 970-2527 limits assumed): as the sequence (Q5S007 970-2527 G2019S limits assumed) above, with S1050G counted along it
Structure (SMILES),GI50 (SHP-77),GI50 (MDA-MB-231 cell line),IC50 (human GST-DYRK1A),IC50 (human GST-CLK1),IC50 (LRRK2),IC50 (LRRK2 (G2019S)),GI50 (MDA-MB-468 cell line)
"COc1cc(S(=O)(=O)N2CCOCC2)ccc1Nc1nc(NC(C)C)c2c(C#N)c[nH]c2n1 [Example 66, 4-(isopropylamino)-2-((2-methoxy-4-(morpholinosulfonyl)phenyl)amino)-7H-pyrrolo[2,3-d]pyrimidine-5-carbonitrile]",< 50 nM,< 50 nM,–,–,–,–,–
"COc1cc(S(=O)(=O)N2CCOCC2)ccc1Nc1nc(NCC(C)C)c2c(C(F)(F)F)c[nH]c2n1 [Example 192, N^4-isobutyl-N^2-(2-methoxy-4-(morpholinosulfonyl)phenyl)-5-(trifluoromethyl)-7H-pyrrolo[2,3-d]pyrimidine-2,4-diamine]",301 to 1000 nM,301 to 1000 nM,0.101 to 0.3 µM,0.301 to 1 µM,–,–,–
"COc1cc(S(=O)(=O)N2CCC(N3CCOCC3)CC2)ccc1Nc1nc(NC2CC2)c2c(C(F)(F)F)c[nH]c2n1 [Example 375, N^4-cyclopropyl-N^2-(2-methoxy-4-((4-morpholino-piperidin-1-yl)sulfonyl)phenyl)-5-(trifluoromethyl)-7H-pyrrolo[2,3-d]pyrimidine-2,4-diamine]",–,101 to 300 nM,0.301 to 1 µM,0.101 to 0.3 µM,< 0.1 µM,< 0.1 µM,301 to 1000 nM
"CCNc1nc(Nc2ccc(S(=O)(=O)N3CCOCC3)c3c2OCCO3)nc2[nH]cc(C(F)(F)F)c12 [Example 432, N^4-ethyl-N^2-(8-(morpholino-sulfonyl)-2,3-dihydro-benzo[b][1,4]dioxin-5-yl)-5-(trifluoromethyl)-7H-pyrrolo[2,3-d]pyrimidine-2,4-diamine]",–,301 to 1000 nM,0.301 to 1 µM,0.301 to 1 µM,< 0.1 µM,0.101 to 0.3 µM,301 to 1000 nM
"COc1cc(S(=O)(=O)N2CCC(N3CCOCC3)CC2)ccc1Nc1nc(NC2CC2)c2c(C#N)c[nH]c2n1 [Example 88, 4-(cyclopropylamino)-2-((2-methoxy-4-((4-morpholinopiperidin-1-yl)sulfonyl)phenyl)amino)-7H-pyrrolo[2,3-d]pyrimidine-5-carbonitrile]",–,101 to 300 nM,0.101 to 0.3 µM,0.101 to 0.3 µM,< 0.1 µM,< 0.1 µM,51 to 100 nM
"CCCNc1nc(Nc2ccc(S(=O)(=O)N3CCC(N4CCOCC4)CC3)cc2OC)nc2[nH]cc(C#N)c12 [Example 83, 2-((2-methoxy-4-((4-morpholinopiperidin-1-yl)sulfonyl)phenyl)amino)-4-(propylamino)-7H-pyrrolo[2,3-d]pyrimidin-5-carbonitrile]",–,< 50 nM,0.301 to 1 µM,0.101 to 0.3 µM,< 0.1 µM,< 0.1 µM,< 50 nM
"C=CCNc1nc(Nc2ccc(S(=O)(=O)N3CCOCC3)cc2OC)nc2[nH]cc(C#N)c12 [Example 362, 4-(allylamino)-2-((2-methoxy-4-(morpholino-sulfonyl)phenyl)amino)-7H-pyrrolo[2,3-d] pyrimidine-5-carbonitrile]",–,< 50 nM,0.301 to 1 µM,0.301 to 1 µM,< 0.1 µM,< 0.1 µM,< 50 nM
"COc1cc(S(=O)(=O)N2CCOCC2)ccc1Nc1nc(NC2CCC2)c2c(C(F)(F)F)c[nH]c2n1 [Example 377, N^4-cyclobuty-N2-(2-methoxy-4-(morpholino-sulfonyl)phenyl)-5-(trifluoromethyl)-7H-pyrrolo[2,3-d]pyrimidine-2,4-diamine]",–,301 to 1000 nM,0.301 to 1 µM,< 0.1 µM,0.101 to 0.3 µM,0.101 to 0.3 µM,301 to 1000 nM
"CC[C@H](C)Nc1nc(Nc2ccc(S(=O)(=O)N3CCC(N4CCOCC4)CC3)cc2OC)nc2[nH]cc(C(F)(F)F)c12 [Example 211, (S)-N^4-(sec-butyl)-N^2-(2-methoxy-4-((4-morpholinopiperidin-1-yl)sulfonyl)phenyl)-5-(trifluoromethyl)-7H-pyrrolo[2,3-d]pyrimidine-2,4-diamine]",–,301 to 1000 nM,0.301 to 1 µM,0.301 to 1 µM,< 0.1 µM,0.101 to 0.3 µM,301 to 1000 nM
"CCNc1nc(Nc2ccc(S(=O)(=O)N3CCC(N4CCOCC4)CC3)cc2OC)nc2[nH]cc(C#N)c12 [Example 82, 4-(ethylamino)-2-((2-methoxy-4-((4-morpholinopiperidin-1-yl)sulfonyl)phenyl)amino)-7H-pyrrolo[2,3-d]pyrimidine-5-carbonitrile]",–,< 50 nM,0.301 to 1 µM,< 0.1 µM,< 0.1 µM,< 0.1 µM,< 50 nM
"COc1cc(S(=O)(=O)N2CCOCC2)ccc1Nc1nc(NC2CC2)c2c(C(F)(F)F)c[nH]c2n1 [Example 374, N^4-cyclopropyl-N^2-(2-methoxy-4-(morpholino-sulfonyl)phenyl)-5-(trifluoromethyl)-7H-pyrrolo[2,3-d]pyrimidine-2,4-diamine]",–,301 to 1000 nM,0.301 to 1 µM,0.301 to 1 µM,< 0.1 µM,< 0.1 µM,301 to 1000 nM

# Results, then the compound that gave them:
GI50 (SHP-77),GI50 (MDA-MB-231 cell line),IC50 (human GST-DYRK1A),IC50 (human GST-CLK1),IC50 (LRRK2),IC50 (LRRK2 (G2019S)),GI50 (MDA-MB-468 cell line),Structure (SMILES)
301 to 1000 nM,301 to 1000 nM,0.301 to 1 µM,0.301 to 1 µM,–,–,–,"COc1cc(S(=O)(=O)N2CCOCC2)ccc1Nc1nc(NCC2CCCC2)c2c(C(F)(F)F)c[nH]c2n1 [Example 194, N^4-(cyclopentylmethyl)-N^2-(2-methoxy-4-(morpholinosulfonyl)phenyl)-5-(trifluoromethyl)-7H-pyrrolo[2,3-d]pyrimidine-2,4-diamine]"
–,101 to 300 nM,0.101 to 0.3 µM,< 0.1 µM,< 0.1 µM,< 0.1 µM,< 50 nM,"COCCNc1nc(Nc2ccc(S(=O)(=O)N3CCC(N4CCOCC4)CC3)cc2OC)nc2[nH]cc(C#N)c12 [Example 87, 2-((2-methoxy-4-((4-morpholinopiperidin-1-yl)sulfonyl)phenyl)amino)-4-((2-methoxyethyl)amino)-7H-pyrrolo[2,3-d]pyrimidine-5-carbonitrile]"
–,301 to 1000 nM,0.301 to 1 µM,0.301 to 1 µM,0.101 to 0.3 µM,< 0.1 µM,301 to 1000 nM,"CCCNc1nc(Nc2ccc(S(=O)(=O)N3CCOCC3)cc2OC)nc2[nH]cc(C(F)(F)F)c12 [Example 372, N^2-(2-methoxy-4-(morpholino-sulfonyl)phenyl)-N^4-propyl-5-(trifluoromethyl)-7H-pyrrolo[2,3-d]pyrimidine-2,4-diamine]"
–,301 to 1000 nM,0.301 to 1 µM,0.301 to 1 µM,< 0.1 µM,< 0.1 µM,301 to 1000 nM,"COCCNc1nc(Nc2ccc(S(=O)(=O)N3CCOCC3)cc2OC)nc2[nH]cc(C(F)(F)F)c12 [Example 373, N^2-(2-methoxy-4-(morpholino-sulfonyl)phenyl)-N^4-(2-methoxyethyl)-5-(trifluoromethyl)-7H-pyrrolo[2,3-d]pyrimidine-2,4-diamine]"
–,101 to 300 nM,0.301 to 1 µM,0.301 to 1 µM,< 0.1 µM,–,101 to 300 nM,"COc1cc(S(=O)(=O)N2CCC(N3CCOCC3)CC2)ccc1Nc1nc(NCC2CCCC2)c2c(C#N)c[nH]c2n1 [Example 95, 4-((cyclopentylmethyl)amino)-2-((2-methoxy-4-((4-morpholinopiperidin-1-yl)sulfonyl)phenyl)amino)-7H-pyrrolo[2,3-d]pyrimidine-5-carbonitrile]"
